According to ChEMBL document CHEMBL3046939, “Design, synthesis, and anti-allergic activities of novel (R)(-)-1-[(4-chlorophenyl)phenyl methyl]piperazine derivatives” (2012):

Experiments:
Type in all cases: functional
Cavia porcellus [1] = assay: Antiasthmatic activity in Cavia porcellus (guinea pig) histamine phosphate-induced asthmatic model assessed as latent period of asthma at 50 mg/kg, administered 1 hr before histamine phosphate challenge with food (reference value: 115.4 +/- 126.2 /s)
Cavia porcellus [2] = assay: Antipruritic activity in Cavia porcellus (guinea pig) histamine phosphate-induced itching model assessed as increase of total amount of histamine phosphate level at 50 mg/kg, administered 1 hr before histamine phosphate challenge with food relative to levocetirizine
Cavia porcellus [3] = assay: Antipruritic activity in Cavia porcellus (guinea pig) histamine phosphate-induced itching model assessed as increase of total amount of histamine phosphate level at 50 mg/kg, administered 1 hr before histamine phosphate challenge with food relative to control

Row | Structure (SMILES) | Time (Cavia porcellus [1]) | Activity (Cavia porcellus [2]) | Activity (Cavia porcellus [3])
1 | COc1ccc(NS(=O)(=O)c2ccc(NCCCN3CCN([C@H](c4ccccc4)c4ccc(Cl)cc4)CC3)cc2)nn1 | 295.6 s | 43.42% | 593.5%
2 | Nc1ccc(S(=O)(=O)NCCN2CCN([C@H](c3ccccc3)c3ccc(Cl)cc3)CC2)cc1 | 266.2 s | 2.55% | 395.87%
3 | Cc1cc(C)nc(NS(=O)(=O)c2ccc(NCCN3CCN([C@H](c4ccccc4)c4ccc(Cl)cc4)CC3)cc2)n1 | 167.4 s | -60.28% | 92.07%
4 | O=S(=O)(Nc1ncccn1)c1ccc(NCCCN2CCN([C@H](c3ccccc3)c3ccc(Cl)cc3)CC2)cc1 | 229.2 s | 39.93% | 576.61%
5 | Nc1ccc(S(=O)(=O)N(CCCN2CCN([C@H](c3ccccc3)c3ccc(Cl)cc3)CC2)c2nccs2)cc1 | 240.3 s | 2.44% | 395.34%
6 | Cc1cc(C)nc(NS(=O)(=O)c2ccc(NCCCN3CCN([C@H](c4ccccc4)c4ccc(Cl)cc4)CC3)cc2)n1 | 136.8 s | -0.15% | 382.83%
7 | O=S(=O)(Nc1nccs1)c1ccc(NCCN2CCN([C@H](c3ccccc3)c3ccc(Cl)cc3)CC2)cc1 | 360 s | -18.8% | 292.61%
8 | O=S(=O)(Nc1ccc(Cl)nn1)c1ccc(NCCN2CCN([C@H](c3ccccc3)c3ccc(Cl)cc3)CC2)cc1 | 255.5 s | 103.46% | 883.81%
9 | COc1ccc(N(CCN2CCN([C@H](c3ccccc3)c3ccc(Cl)cc3)CC2)S(=O)(=O)c2ccc(N)cc2)nn1 | 288 s | 62.62% | 686.34%
10 | COc1ccc(NS(=O)(=O)c2ccc(NCCN3CCN([C@H](c4ccccc4)c4ccc(Cl)cc4)CC3)cc2)nn1 | 360 s | -21.49% | 279.65%
11 | Nc1ccc(S(=O)(=O)N(CCN2CCN([C@H](c3ccccc3)c3ccc(Cl)cc3)CC2)c2ccc(Cl)nn2)cc1 | 151.2 s | -78% | 6.4%
12 | O=S(=O)(Nc1nccs1)c1ccc(NCCCN2CCN([C@H](c3ccccc3)c3ccc(Cl)cc3)CC2)cc1 | 324.8 s | -18.04% | 296.34%
13 | Nc1ccc(S(=O)(=O)N(CCCN2CCN([C@H](c3ccccc3)c3ccc(Cl)cc3)CC2)c2ccc(Cl)nn2)cc1 | 301.8 s | 10.1% | 432.37%
14 | O=S(=O)(Nc1ccc(Cl)nn1)c1ccc(NCCCN2CCN([C@H](c3ccccc3)c3ccc(Cl)cc3)CC2)cc1 | 184.1 s | 82.74% | 783.62%
15 | C[C@H](NCCCN1CCN([C@H](c2ccccc2)c2ccc(Cl)cc2)CC1)C(=O)O | 307.6 s | 113.8% | 933.8%
16 | Nc1ccc(S(=O)(=O)NCCCN2CCN([C@H](c3ccccc3)c3ccc(Cl)cc3)CC2)cc1 | 269.4 s | 107.15% | 901.67%
17 | O=C(O)CNCCCN1CCN([C@H](c2ccccc2)c2ccc(Cl)cc2)CC1 | 360 s | 22.71% | 493.36%
18 | Nc1ccc(S(=O)(=O)N(CCN2CCN([C@H](c3ccccc3)c3ccc(Cl)cc3)CC2)c2nccs2)cc1 | 184.8 s | 9.4% | 429.01%
19 | O=S(=O)(Nc1ncccn1)c1ccc(NCCN2CCN([C@H](c3ccccc3)c3ccc(Cl)cc3)CC2)cc1 | 246.4 s | 217.8% | 1436.72%
